# Source: PMC6469940 (Science Advances, 2019)
# Target: T1, hM4D(Gi) (human M4 muscarinic receptor-based DREADD) (Homo sapiens, UniProt P08173, A203G/Y113C)
# T1 construct: gene CHRM4; hM4D(Gi) plasmid (Addgene 45548)
# T1 sequence (P08173 1-479 Y113C/A203G): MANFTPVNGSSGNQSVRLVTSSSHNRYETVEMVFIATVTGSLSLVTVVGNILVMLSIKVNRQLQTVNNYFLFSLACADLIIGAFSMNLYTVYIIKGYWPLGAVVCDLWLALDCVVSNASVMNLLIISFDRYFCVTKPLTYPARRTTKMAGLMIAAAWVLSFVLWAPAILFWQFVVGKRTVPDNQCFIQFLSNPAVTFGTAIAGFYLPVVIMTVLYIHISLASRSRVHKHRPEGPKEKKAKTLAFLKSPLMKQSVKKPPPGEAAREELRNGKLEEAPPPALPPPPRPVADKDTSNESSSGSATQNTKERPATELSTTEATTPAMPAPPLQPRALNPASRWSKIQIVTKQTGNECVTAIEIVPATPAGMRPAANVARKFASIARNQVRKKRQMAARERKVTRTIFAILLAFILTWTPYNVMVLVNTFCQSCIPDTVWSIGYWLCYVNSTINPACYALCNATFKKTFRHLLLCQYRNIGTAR
# Experiment: whole-cell patch clamp of Kir3.[…] current potentiation in HEK cells transfected with hM4D(Gi)
# Type: cell-based
row,EC50 [nM],SMILES
1,40 ± 10,"CN1CCN(C2=Nc3ccccc3Cc3ccccc32)CC1 [PLP, perlapine]"
2,20 ± 4,"c1ccc2c(c1)N=C(N1CCNCC1)c1ccccc1N2 [C21, compound 21]"
